Source: US4401671A, “Treatment of giardiasis and trichomoniasis” (priority 1982, dated 1983)
Values after ≈ are worked out from the molar mass of the structure shown. Like-named read-outs stand apart in the source and are kept apart here.

Columns and labels:
Giardia lamblia [1] = conditions: background statement, human infection; cited from earlier work
[2] = cited from earlier work
Giardia lamblia [3] = assay: In vitro anti-Giardia lamblia activity (growth inhibition, viable cell count by hemacytometer); format: cell-based; conditions: Giardia duodenalis, read-out: Anti-G. lamblia ED50
Experimental: About 1.0-2.0 ml of a nutrient medium, for example, the modified Diamond's TPS medium at pH 7.05, together with about 10% by volume of heat-inactivated serum and about 1% by volume of antibiotic-antimycotic solution is placed in each well of a multiwell plate. To this mixture, an aliquot of a suspension of G. lamblia cells containing about 10^6 organisms is added. Subsequently, each well is inoculated with a known concentration of one of the active compounds. The multiwell plate containing the individual culture samples is incubated under anaerobic conditions at about 37° C. for about 16-24 hrs. The number of viable cells remaining in each well are then counted, such as with a hemacytometer. […]
In each well of a mutliwell plate is placed 1.4 ml of media mix containing Diamond's TPS medium (see Table 2) at pH 7.05, 10% by volume of heat-inactivated fetal bovine serum, and 1% by volume of an antibiotic-antimycotic solution (see Table 3). […] The cells are resuspended in a small volume of the Diamond's medium, counted, and each well inoculated with approximately 10^6 organisms. […] After 24 hours of incubation each well is mixed and counted for viable organisms using a hemacytometer. The percentage of survival is determined by comparing the treated wells to controls treated with dimethylsulfoxide. […]

Trichomonas foetus = assay: In vitro anti-Trichomonas foetus activity (growth inhibition, viable cell count); format: cell-based, T. foetus KV1; conditions: for IC50: Tritrichomonas foetus, read-out: Anti-T. foetus ED50
T. vaginalis = assay: anti-T. vaginalis activity; format: cell-based, Trichomonas vaginalis; conditions: as shown in Table 1

Cc1ncc([N+](=O)[O-])n1CCO [Flagyl, metronidazole]
treatment of giardiasis (in words) (Giardia lamblia [1]): successfully treated | adverse side effects (in words) ([2]; in vivo): known to cause adverse side effects

O=C1OCCN1N=Cc1ccc([N+](=O)[O-])o1 [furazolidione]
treatment of giardiasis (in words) (Giardia lamblia [1]): successfully treated | adverse side effects (in words) ([2]; background statement): known to cause adverse side effects

[O-][n+]1ccnc(O)c1 [emimycin, 2-hydroxypyrazine-4-oxide]
IC50 (Giardia lamblia [3]; effective concentration for 50% inhibition of growth, 37° C., anaerobic, about 16-24 hrs (24 hours in Example 1)): 22 mg/L (≈ 196 µM) | IC50 (Trichomonas foetus; effective concentration for 50% inhibition of growth, 37° C., 24 hours, T. foetus KV1): < 1 mg/L | anti-T. vaginalis activity (in words) (T. vaginalis): active anti-T. vaginalis agents

O=c1[nH]cc(F)c(=O)[nH]1 [fluorouracil, 5-fluoro-2,4-(1H, 3H)pyrimidenedione]
IC50 (Giardia lamblia [3]): 100 mg/L (≈ 769 µM) | anti-T. foetus activity (in words) (Trichomonas foetus; 37° C., 24 hours): effective anti-T. foetus agent | IC50 (Trichomonas foetus; 24 h): 3 mg/L (≈ 23.1 µM)

CCN(CC)CCCC(C)Nc1c2ccc(Cl)cc2nc2ccc(OC)cc12 (stereo not drawn) [Atabrine]
treatment of giardiasis (in words) (Giardia lamblia [1]): successfully treated | adverse side effects (in words) ([2]; in vivo): known to cause adverse side effects
